Measurements as given in US6753330B2, “Solid dispersion composition” (Kowa Co., Ltd., priority 2002, dated 2004).

How the values were obtained:
[1] = Solubility of compound 1 in water; assay type: physicochemical
[2] = system: production of interleukin 1β; conditions: disclosed in JP Laid-Open No. 2000-198776; cited from earlier work

## CSc1ccc(-c2nn(Cc3ccccc3)c(=O)cc2-c2ccc(Cl)cc2)cc1 [compound 1, 2-benzyl-5-(4-chlorophenyl)-6-[4-(methylthio)phenyl]-2H-pyridazin-3-one]
[1]
  solubility in water (in words): exceptionally poor solubility in water
[2]
  effect for suppressing production of interleukin 1β (in words): excellent effect
